Assays:
[1] = molecular target: E3 ubiquitin-protein ligase CBL-B (Homo sapiens, UniProt Q13191); experiment: Inhibition of N-terminal Avi-tagged human CBL-B (36 to 427 residues) incubated with 60 nM Src kinase for 1.5 hrs followed by incubation with fluorescently labeled UbcH5B-Ub for 1 hr and measured by TR-FRET assay; format: single protein
[2] = Induction of anti-CD3 antibodies-stimulated human T cell activation at 1 uM assessed fold increase in CD25 expression measured by ELISA assay; format: functional, T cell line
[3] = Induction of anti-CD3 antibodies-stimulated human T cell activation at 1 uM assessed fold increase in IL-2 secretion measured by ELISA assay; format: functional, T cell line
[4] = Induction of anti-CD3/CD28 antibodies-stimulated human T cell activation at 0.3 uM assessed fold increase in CD25 expression measured by ELISA assay; format: functional, T cell line
[5] = Induction of anti-CD3/CD28 antibodies-stimulated human T cell activation at 1 uM assessed fold increase in CD25 expression measured by ELISA assay; format: functional, T cell line
[6] = Induction of anti-CD3/CD28 antibodies-stimulated human T cell activation at 1 uM assessed fold increase in IL-2 secretion measured by ELISA assay; format: functional, T cell line
[7] = Induction of anti-CD3/CD28 antibodies-stimulated human T cell activation at 0.3 uM assessed fold increase in IL-2 secretion measured by ELISA assay; format: functional, T cell line

E3 ubiquitin-protein ligase CBL-B, sequence (Q13191 whole entry, the tested form may be a part): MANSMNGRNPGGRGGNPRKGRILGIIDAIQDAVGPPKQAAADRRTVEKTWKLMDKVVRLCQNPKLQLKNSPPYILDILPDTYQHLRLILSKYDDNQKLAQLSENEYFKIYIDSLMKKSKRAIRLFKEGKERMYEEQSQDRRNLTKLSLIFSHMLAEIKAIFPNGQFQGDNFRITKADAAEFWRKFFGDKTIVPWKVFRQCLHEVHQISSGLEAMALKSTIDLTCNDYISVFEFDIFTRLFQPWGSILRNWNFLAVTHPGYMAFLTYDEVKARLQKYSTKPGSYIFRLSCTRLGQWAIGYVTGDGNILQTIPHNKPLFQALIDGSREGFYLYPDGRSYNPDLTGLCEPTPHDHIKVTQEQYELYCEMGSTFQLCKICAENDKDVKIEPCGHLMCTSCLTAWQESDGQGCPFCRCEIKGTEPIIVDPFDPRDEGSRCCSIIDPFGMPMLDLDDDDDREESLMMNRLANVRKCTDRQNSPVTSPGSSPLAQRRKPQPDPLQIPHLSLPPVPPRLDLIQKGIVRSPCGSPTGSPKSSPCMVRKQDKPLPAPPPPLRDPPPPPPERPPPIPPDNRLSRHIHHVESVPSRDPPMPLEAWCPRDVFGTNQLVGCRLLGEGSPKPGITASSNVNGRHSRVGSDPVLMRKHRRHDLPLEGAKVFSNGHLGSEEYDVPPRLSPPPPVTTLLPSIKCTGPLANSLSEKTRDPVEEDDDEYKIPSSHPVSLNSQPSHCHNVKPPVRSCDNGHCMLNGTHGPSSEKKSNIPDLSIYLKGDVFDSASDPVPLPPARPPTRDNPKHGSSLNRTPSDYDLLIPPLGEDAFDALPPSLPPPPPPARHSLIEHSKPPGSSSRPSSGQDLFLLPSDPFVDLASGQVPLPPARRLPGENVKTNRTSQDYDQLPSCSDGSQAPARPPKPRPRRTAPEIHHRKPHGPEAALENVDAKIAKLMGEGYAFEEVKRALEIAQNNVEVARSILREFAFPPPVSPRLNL

Structure (SMILES) | IC50 [1] | fold change (FC) ([2]; 1 µM) | fold change (FC) ([3]; 1 µM) | fold change (FC) ([4]; 0.3 µM) | fold change (FC) ([5]; 1 µM) | fold change (FC) [6] | fold change (FC) [7] | fold change (FC) [2] | fold change (FC) [3] | fold change (FC) [4] | fold change (FC) [5]
CN1CC[C@H](O)C(Cc2cc3c(c(C(F)(F)F)c2)CN(c2cccc(C4(Cc5nncn5C)COC4)c2)C3=O)C1 (single isomer, unassigned) | < 100 nM |  |  |  |  |  |  |  |  |  | 
Cn1cnnc1CC1(c2cccc(N3Cc4c(cc(CN5CCOC6(CCOC6)C5)cc4C(F)(F)F)C3=O)c2)COC1 (configuration not stated) | < 100 nM |  |  |  |  |  |  |  |  |  | 
Cn1cnnc1CC1(c2cccc(N3Cc4c(cc(CN5CCOC(CF)C5)cc4C(F)(F)F)C3=O)c2)COC1 (configuration not stated) | < 100 nM |  |  |  |  |  |  |  |  |  | 
Cn1cnnc1[C@@H](F)C1(c2cccc(N3Cc4c(cc(CN5C6CCCC5CC6)cc4C(F)(F)F)C3=O)c2)COC1 (stereo in doubt; 675a) |  | >=1.001 | 0.101 | 1.01 | 1.31 |  |  |  |  |  | 
Cn1cnnc1[C@H](F)C1(c2cccc(N3Cc4c(cc(CN5C6CCCC5CC6)cc4C(F)(F)F)C3=O)c2)COC1 (stereo in doubt; 675b) |  |  |  | 1.31 | 1.31 |  |  |  |  |  | 
C[C@@H](Cc1n[nH]cc1CO)c1cccc(N2Cc3c(cccc3C(F)(F)F)C2=O)c1 | > 10000 nM |  |  |  |  |  |  |  |  |  | 
Cn1cnnc1CC1(c2cccc(N3Cc4c(cc(CN5CC6CC(C5)C6(F)F)cc4C(F)(F)F)C3=O)c2)COC1 | < 100 nM |  |  |  |  |  |  |  |  |  | 
C[C@@H]1CCN(Cc2cc3c(c(C(F)(F)F)c2)CN(c2cccc(C4(Cc5nncn5C)COC4)c2)C3=O)C[C@@H]1F | < 100 nM |  |  |  |  |  |  |  |  |  | 
Cn1cnnc1CC1(c2cccc(N3Cc4c(ccc(F)c4C4CC4)C3=O)c2)COC1 |  |  |  |  |  | 1.01 | 1.01 | 0.601 | 0.051 | 1.01 | 1.01
Cc1cc(C(=O)Nc2cccc(-c3c(-c4nncn4C)cnn3C)c2)nc(C2CC2)n1 |  |  |  |  |  | 1.01 | 1.01 | 0.601 | 0.101 | 1.01 | 1.01
Cc1cc(C(=O)Nc2cccc([C@]3(Cc4nncn4C)CCOC3)c2)nc(C2CC2)n1 (single isomer, unassigned) |  |  |  |  |  | 2.51 | 1.01 | 0.601 | 0.051 | 1.01 | 1.01
Cn1cnnc1CC1(c2cccc(N3Cc4c(cc(CN5CCc6cnccc6C5)cc4C(F)(F)F)C3=O)c2)COC1 | < 100 nM |  |  |  |  |  |  |  |  |  | 
Cn1cnnc1CC1(c2cccc(N3Cc4c(cc(C(F)(F)C(=O)O)cc4C(F)(F)F)C3=O)c2)COC1 |  |  |  |  |  | 1.01 | 1.01 | 0.601 | <=0.05 | 1.01 | 1.01
Cc1cc(C(=O)Nc2cccc(C3(Cc4[nH]ncc4C)COC3)c2)nc(C2CC2)n1 | < 100 nM |  |  |  |  |  |  |  |  |  | 
Cc1cc(C(=O)Nc2cccc(C3(Cc4nncn4C(F)F)COC3)c2)nc(C2CC2)n1 | < 100 nM |  |  |  |  |  |  |  |  |  | 
Cn1cnnc1CC1(c2cccc(N3Cc4c(cc(CN5CCc6ncccc6C5)cc4C(F)(F)F)C3=O)c2)COC1 | < 100 nM |  |  |  |  |  |  |  |  |  | 
C[C@H]1CCN(Cc2cc3c(c(C(F)(F)F)c2)CN(c2cccc(C4(Cc5nncn5C)COC4)c2)C3=O)C[C@H]1F | < 100 nM |  |  |  |  |  |  |  |  |  | 

Structure (SMILES) | IC50 [1] | fold change (FC) ([2]; 1 µM) | fold change (FC) ([3]; 1 µM) | fold change (FC) ([4]; 0.3 µM) | fold change (FC) ([5]; 1 µM) | fold change (FC) [6] | fold change (FC) [7] | fold change (FC) [2] | fold change (FC) [3] | fold change (FC) [4] | fold change (FC) [5]
Cn1cnnc1-c1cnn(C)c1-c1cccc(N2Cc3c(cccc3C(F)(F)F)C2=O)c1 |  |  |  |  |  | 1.01 | 1.01 | 0.601 | 0.051 | 1.01 | 1.01
C[C@H](Cc1nncn1C)c1cc(-c2cn[nH]c2)nc(N2Cc3c(cccc3C(F)(F)F)C2=O)c1 |  |  |  |  |  | <=1 | <=1 | <=0.6 | 0.051 | <=1 | <=1
CN(c1cc2c(c(C(F)(F)F)c1)CN(c1cccc([C@@](C)(F)C(F)(F)c3nncn3C)c1)C2=O)[C@@H]1CNC[C@@H]1F |  |  |  |  |  | 2.51 | 1.01 | 0.601 | 0.101 | 1.01 | 1.01
Cn1cnnc1CC1(c2cccc(NC(=O)c3csc(C4CC4)n3)c2)COC1 |  |  |  |  |  | 1.01 | 1.01 | 0.601 | 0.051 | 1.01 | 1.01
Cc1cnn2c(C(=O)Nc3cccc(C4(Cc5nncn5C)COC4)c3)cc(C(F)(F)F)nc12 |  |  |  |  |  | 1.01 | <=1 | 0.601 | <=0.05 | 1.01 | 1.01
Cn1cnnc1CC1(c2cccc(N3Cc4c(cc(C5=CN6CCC5CC6)cc4C(F)(F)F)C3=O)c2)COC1 |  |  |  |  |  | 2.51 | 1.01 | 0.601 | <=0.05 | 1.01 | 1.01
Cc1cc(C(=O)Nc2cccc(C3(Cc4nncn4C)COC3)c2)n2nccc2n1 |  |  |  |  |  | 1.01 | 1.01 | 0.601 | <=0.05 | 1.01 | 1.01
Cc1cc(C(=O)Nc2cccc(C3(Cc4nncn4C)COC3)c2)n2nc(C(F)(F)F)cc2n1 |  |  |  |  |  | 1.01 | 1.01 | 0.601 | <=0.05 | 1.01 | 1.01
C[C@H](Cc1nncn1C)c1cc(N2Cc3c(cccc3C(F)(F)F)C2=O)nc(C2(C)CC2)c1 |  |  |  |  |  | 1.01 | 1.01 | <=0.6 | 0.051 | 1.01 | 1.01
Cn1cnnc1CC1(c2cccc(NC(=O)c3nc(C4CC4)cs3)c2)COC1 |  |  |  |  |  | 1.01 | <=1 | <=0.6 | <=0.05 | 1.01 | 1.01
CN(c1cc2c(c(C(F)(F)F)c1)CN(c1cccc([C@@](C)(F)C(F)(F)c3nncn3C)c1)C2=O)[C@H]1CNC[C@H]1F |  |  |  |  |  | 2.51 | 1.01 | 0.801 | 0.151 | 1.01 | 1.31
Cn1cnnc1OC1(c2cccc(N3Cc4c(cc(CN5CCC(F)CC5)cc4C(F)(F)F)C3=O)c2)COC1 |  |  |  |  |  | 2.51 | 1.01 | 0.601 | <=0.05 | 1.01 | 1.31
C[C@H](Cc1nncn1C)c1cc(-c2cncs2)nc(N2Cc3c(cccc3C(F)(F)F)C2=O)c1 |  |  |  |  |  | 1.01 | 1.01 | <=0.6 | 0.051 | 1.01 | 1.01
C[C@H](Cc1nncn1C)c1cc(C2CCOCC2)nc(N2Cc3c(cccc3C(F)(F)F)C2=O)c1 |  |  |  |  |  | 1.01 | 1.01 | <=0.6 | <=0.05 | 1.01 | 1.01
Cn1cnnc1CC1(c2cccc(NC(=O)c3ccnc4ccnn34)c2)COC1 |  |  |  |  |  | 2.51 | 1.01 | 0.601 | <=0.05 | 1.01 | 1.01
Cn1cnnc1CC1(c2cccc(NC(=O)c3nc(C(F)(F)F)cs3)c2)COC1 |  |  |  |  |  | 2.51 | 1.01 | 0.601 | <=0.05 | 1.01 | 1.01

Reference: ChEMBL document CHEMBL5050844 (2019)
